What was measured:
Format in all cases: biochemical
SIK1 = target: T1, SIK1 (Homo sapiens, UniProt P57059); experiment: ADP-Glo kinase assay, SIK1
T1 construct: purchased Carna Biosciences 02-131
Procedure: (§1) The ADP-Glo™ kinase assay is a luminescent technology assay which measures the ADP formed from a kinase reaction. […] In a second step the kinase reactions are terminated and all the remaining ATP is depleted. In a final step the ADP is converted into ATP and this newly synthesized ATP is measured by using a luciferase/luciferin reaction. The generated light is measured using an Envision plate reader, wherein the luminescent signal obtained positively correlates with the kinase activity.
(§2) 1% DMSO and 10 μM staurosporine final concentrations are used as negative and positive controls.
(§3) 2 μL enzyme-substrate mixture is added to the assay plates.
(§4) The reaction is started by adding 2 μL diluted ATP on the assay plates. Plates are centrifuged for a few seconds at 1000 rpm and gently shaken for […] followed by an incubation at RT for 120 min.
(§5) The reactions are stopped and the unconsumed ATP is depleted by adding 5 μL ADP-Glo Reagent (Promega, Cat #V9120) to the reaction. The plates are centrifuged for a few seconds at 1000 rpm and incubated at RT for 40 min (ATP depletion).
(§6) The ADP is converted to ATP and luciferase and luciferin is introduced to detect ATP by adding 10 μL Kinase Detection Reagent (Promega, Cat #V913B+V914r) to the reaction. The plates are centrifuged for a few seconds at 1000 rpm and incubated at RT for 30 min (ADP detection).
(§7) Luminescence is measured on an Envision plate reader (PerkinElmer Inc.).

SIK3 = target: T2, SIK3 (Homo sapiens, UniProt Q9Y2K2); experiment: ADP-Glo kinase assay, SIK3
T2 construct: purchased SignalChem S12-11G-100
T2 sequence (Q9Y2K2 59-365 limits assumed): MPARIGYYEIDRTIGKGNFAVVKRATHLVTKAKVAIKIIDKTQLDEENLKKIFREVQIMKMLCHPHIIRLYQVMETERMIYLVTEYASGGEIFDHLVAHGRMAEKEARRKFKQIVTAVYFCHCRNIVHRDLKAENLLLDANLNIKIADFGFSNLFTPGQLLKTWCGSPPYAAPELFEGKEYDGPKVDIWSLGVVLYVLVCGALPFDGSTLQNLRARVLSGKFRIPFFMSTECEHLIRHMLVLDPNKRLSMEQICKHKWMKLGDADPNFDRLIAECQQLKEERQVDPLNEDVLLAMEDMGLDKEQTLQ
Procedure: as §1, §2, §3, §4, §5, §6, §7

SIK2 = target: T3, SIK2 (Homo sapiens, UniProt Q9H0K1); experiment: ADP-Glo kinase assay, SIK2
T3 construct: purchased ThermoFisher Scientific PV4792
T3 sequence (Q9H0K1 whole entry): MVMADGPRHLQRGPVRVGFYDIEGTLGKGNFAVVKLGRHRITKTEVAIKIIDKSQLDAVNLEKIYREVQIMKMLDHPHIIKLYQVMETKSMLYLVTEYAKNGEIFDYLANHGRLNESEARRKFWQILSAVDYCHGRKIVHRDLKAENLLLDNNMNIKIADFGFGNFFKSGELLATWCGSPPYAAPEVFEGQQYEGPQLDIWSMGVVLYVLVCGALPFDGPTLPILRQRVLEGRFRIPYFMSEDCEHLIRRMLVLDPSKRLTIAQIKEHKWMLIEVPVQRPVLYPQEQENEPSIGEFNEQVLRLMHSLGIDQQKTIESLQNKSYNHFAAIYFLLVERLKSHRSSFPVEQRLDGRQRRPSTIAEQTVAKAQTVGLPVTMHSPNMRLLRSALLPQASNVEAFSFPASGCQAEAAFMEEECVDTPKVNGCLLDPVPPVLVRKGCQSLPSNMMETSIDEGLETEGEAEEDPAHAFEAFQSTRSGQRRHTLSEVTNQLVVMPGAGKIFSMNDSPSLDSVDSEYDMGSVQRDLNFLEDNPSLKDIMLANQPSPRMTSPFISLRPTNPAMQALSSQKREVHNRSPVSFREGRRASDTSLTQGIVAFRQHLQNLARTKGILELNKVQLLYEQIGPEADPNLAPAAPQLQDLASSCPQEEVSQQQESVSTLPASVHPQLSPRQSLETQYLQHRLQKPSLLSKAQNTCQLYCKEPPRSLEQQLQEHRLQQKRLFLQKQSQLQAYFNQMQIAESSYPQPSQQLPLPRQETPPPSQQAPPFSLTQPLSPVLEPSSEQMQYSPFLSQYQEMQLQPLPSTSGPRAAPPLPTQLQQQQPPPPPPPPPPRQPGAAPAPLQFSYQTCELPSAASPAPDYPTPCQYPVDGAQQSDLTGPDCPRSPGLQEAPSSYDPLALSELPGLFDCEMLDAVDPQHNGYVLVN
Procedure: as §1, §2, §3, §4, §5, §6, §7

T1 sequence (P57059 whole entry): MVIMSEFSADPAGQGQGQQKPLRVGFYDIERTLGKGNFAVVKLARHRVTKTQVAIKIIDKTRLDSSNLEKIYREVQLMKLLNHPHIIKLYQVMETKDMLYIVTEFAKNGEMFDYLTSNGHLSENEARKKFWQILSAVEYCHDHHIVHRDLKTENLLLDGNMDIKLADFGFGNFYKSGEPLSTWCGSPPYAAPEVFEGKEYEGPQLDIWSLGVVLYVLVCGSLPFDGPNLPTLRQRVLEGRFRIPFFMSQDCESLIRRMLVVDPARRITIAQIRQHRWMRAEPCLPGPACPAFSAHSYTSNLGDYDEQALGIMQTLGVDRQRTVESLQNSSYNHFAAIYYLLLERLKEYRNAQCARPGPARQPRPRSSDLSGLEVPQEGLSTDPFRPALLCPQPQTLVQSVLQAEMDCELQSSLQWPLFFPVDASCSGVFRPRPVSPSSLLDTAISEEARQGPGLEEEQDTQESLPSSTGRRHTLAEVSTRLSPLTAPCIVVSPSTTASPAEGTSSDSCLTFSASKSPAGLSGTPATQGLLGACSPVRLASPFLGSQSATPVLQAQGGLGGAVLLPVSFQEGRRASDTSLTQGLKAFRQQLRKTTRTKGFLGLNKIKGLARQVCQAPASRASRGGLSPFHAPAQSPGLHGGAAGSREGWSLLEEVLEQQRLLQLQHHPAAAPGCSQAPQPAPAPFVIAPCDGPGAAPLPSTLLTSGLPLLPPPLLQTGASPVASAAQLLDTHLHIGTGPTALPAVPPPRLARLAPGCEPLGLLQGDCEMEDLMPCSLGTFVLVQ

Row | Compound | IC50 (SIK1) | IC50 (SIK3) | IC50 (SIK2)
1 | COc1cc(-c2cnc3cc(C(C)(C)C#N)ccn23)cc(OC(F)F)c1C(=O)N1CC(C(F)(F)F)C1 [Cpd 76, 2-[3-[3-(difluoromethoxy)-5-methoxy-4-[3-(trifluoromethyl)azetidine-1-carbonyl]phenyl]imidazo[1,2-a]pyridin-7-yl]-2-methyl-propanenitrile] | > 500 nM | 0.01 to 10 nM | 100 to 500 nM
2 | COc1cc(-c2cnc3cc(C(C)(C)C#N)ccn23)cc(OC(F)F)c1C(=O)NC1(C(C)C)CC1 [Cpd 80, 4-[7-(1-cyano-1-methyl-ethyl)imidazo[1,2-a]pyridin-3-yl]-2-(difluoromethoxy)-N-(1-isopropylcyclopropyl)-6-methoxy-benzamide] | > 500 nM | > 500 nM | > 500 nM
3 | COCC1(NC(=O)c2c(OC)cc(-c3cnc4cc(C(C)(C)C#N)ccn34)cc2OC(F)F)CC1 [Cpd 81, 4-[7-(1-cyano-1-methyl-ethyl)imidazo[1,2-a]pyridin-3-yl]-2-(difluoromethoxy)-6-methoxy-N-[1-(methoxymethyl)cyclopropyl]benzamide] | > 500 nM | > 500 nM | > 500 nM
4 | COc1cc(-c2cnc3cc(C(C)(C)C#N)ccn23)cc(OC(F)F)c1C(=O)N(C)C1CC1 [Cpd 84, 4-[7-(1-cyano-1-methyl-ethyl)imidazo[1,2-a]pyridin-3-yl]-N-cyclopropyl-2-(difluoromethoxy)-6-methoxy-N-methyl-benzamide] | > 500 nM | 100 to 500 nM | > 500 nM
5 | COc1cc(-c2cnc3cc(C(C)(C)C#N)ccn23)cc(OC(F)F)c1C(=O)NCC1CCOC1 (stereo not drawn) [Cpd 85, 4-[7-(1-cyano-1-methyl-ethyl)imidazo[1,2-a]pyridin-3-yl]-2-(difluoromethoxy)-6-methoxy-N-(tetrahydrofuran-3-ylmethyl)benzamide] | > 500 nM | 100 to 500 nM | > 500 nM
6 | COc1cc(-c2cnc3cc(C4CN(C)C4)ccn23)cc(OC(F)F)c1C(=O)NC1CC1 [Cpd 91, N-cyclopropyl-2-(difluoromethoxy)-6-methoxy-4-[7-(1-methylazetidin-3-yl)imidazo[1,2-a]pyridin-3-yl]benzamide] | > 500 nM | 10 to 100 nM | 100 to 500 nM
7 | COc1cc(-c2cnc3cc(C(C)(C)C#N)ccn23)cc(OC(F)F)c1C(=O)N1CC(NC(=O)OC(C)(C)C)C1 [Cpd 94, tert-butyl N-[1-[4-[7-(1-cyano-1-methyl-ethyl)imidazo[1,2-a]pyridin-3-yl]-2-(difluoromethoxy)-6-methoxy-benzoyl]azetidin-3-yl]carbamate] | > 500 nM | > 500 nM | > 500 nM
8 | COc1cc(-c2cnc3cc(C(C)(C)C#N)ccn23)cc(OC(F)F)c1C(=O)N1CC2(CN(C)C2)C1 [Cpd 99, 2-[3-[3-(difluoromethoxy)-5-methoxy-4-(6-methyl-2,6-diazaspiro[3.3]heptane-2-carbonyl)phenyl]imidazo[1,2-a]pyridin-7-yl]-2-methyl-propanenitrile] | > 500 nM | 100 to 500 nM | > 500 nM
9 | COc1cc(-c2cnc3cc(C(C)(C)C#N)ccn23)cc(OC(F)F)c1C(=O)NCC1COC1 [Cpd 102, 4-[7-(1-cyano-1-methyl-ethyl)imidazo[1,2-a]pyridin-3-yl]-2-(difluoromethoxy)-6-methoxy-N-(oxetan-3-ylmethyl)benzamide] | > 500 nM | 10 to 100 nM | > 500 nM
10 | COc1cc(-c2cnc3cc(C(C)(C)C#N)ccn23)cc(OC(F)F)c1C(=O)N1CC(N)C1 [Cpd 103, 2-[3-[4-(3-aminoazetidine-1-carbonyl)-3-(difluoromethoxy)-5-methoxy-phenyl]imidazo[1,2-a]pyridin-7-yl]-2-methyl-propanenitrile] | > 500 nM | 10 to 100 nM | > 500 nM
11 | COc1cc(-c2cnc3cc(C(C)(C)C#N)ccn23)cc(OC(F)F)c1C(=O)N1CCC1C (stereo not drawn) [Cpd 104, 2-[3-[3-(difluoromethoxy)-5-methoxy-4-(2-methylazetidine-1-carbonyl)phenyl]imidazo[1,2-a]pyridin-7-yl]-2-methyl-propanenitrile] | > 500 nM | > 500 nM | > 500 nM

Results, then the compound that gave them:

Row | IC50 (SIK1) | IC50 (SIK3) | IC50 (SIK2) | Compound
12 | > 500 nM | 10 to 100 nM | > 500 nM | COc1cc(-c2cnc3cc(C(C)(C)C#N)ccn23)cc(OC(F)F)c1C(=O)NC(C)C [Cpd 78, 4-[7-(1-cyano-1-methyl-ethyl)imidazo[1,2-a]pyridin-3-yl]-2-(difluoromethoxy)-N-isopropyl-6-methoxy-benzamide]
13 | > 500 nM | > 500 nM | > 500 nM | COc1cc(-c2cnc3cc(C(C)(C)C#N)ccn23)cc(OC(F)F)c1C(=O)N(C)CC1CC1 [Cpd 82, 4-[7-(1-cyano-1-methyl-ethyl)imidazo[1,2-a]pyridin-3-yl]-N-(cyclopropylmethyl)-2-(difluoromethoxy)-6-methoxy-N-methyl-benzamide]
14 | > 500 nM | > 500 nM | > 500 nM | CCC1(NC(=O)c2c(OC)cc(-c3cnc4cc(C(C)(C)C#N)ccn34)cc2OC(F)F)CC1 [Cpd 83, 4-[7-(1-cyano-1-methyl-ethyl)imidazo[1,2-a]pyridin-3-yl]-2-(difluoromethoxy)-N-(1-ethylcyclopropyl)-6-methoxy-benzamide]
15 | > 500 nM | 10 to 100 nM | > 500 nM | COc1cc(-c2cnc3cc(C(C)(C)C#N)ccn23)cc(OC(F)F)c1C(=O)NC1CCOC1 (stereo not drawn) [Cpd 86, 4-[7-(1-cyano-1-methyl-ethyl)imidazo[1,2-a]pyridin-3-yl]-2-(difluoromethoxy)-6-methoxy-N-tetrahydrofuran-3-yl-benzamide]
16 | > 500 nM | > 500 nM | > 500 nM | COc1cc(-c2cnc3cc(C(C)(C)C#N)ccn23)cc(OC(F)F)c1C(=O)NC(CO)C1CC1 (stereo not drawn) [Cpd 87, 4-[7-(1-cyano-1-methyl-ethyl)imidazo[1,2-a]pyridin-3-yl]-N-(1-cyclopropyl-2-hydroxy-ethyl)-2-(difluoromethoxy)-6-methoxy-benzamide]
17 | > 500 nM | 10 to 100 nM | > 500 nM | COc1cc(-c2cnc3cc(C(C)(C)C#N)ccn23)cc(OC(F)F)c1C(=O)NC1CC(F)(F)C1 [Cpd 88, 4-[7-(1-cyano-1-methyl-ethyl)imidazo[1,2-a]pyridin-3-yl]-N-(3,3-difluorocyclobutyl)-2-(difluoromethoxy)-6-methoxy-benzamide]
18 | > 500 nM | 10 to 100 nM | > 500 nM | C#CC1(O)CN(C(=O)c2c(OC)cc(-c3cnc4cc(C(C)(C)C#N)ccn34)cc2OC(F)F)C1 [Cpd 89, 2-[3-[3-(difluoromethoxy)-4-(3-ethynyl-3-hydroxy-azetidine-1-carbonyl)-5-methoxy-phenyl]imidazo[1,2-a]pyridin-7-yl]-2-methyl-propanenitrile]
19 | > 500 nM | 10 to 100 nM | > 500 nM | COc1cc(-c2cnc3cc(C(C)(C)C#N)ccn23)cc(OC(F)F)c1C(=O)NCC1CCC1 [Cpd 90, 4-[7-(1-cyano-1-methyl-ethyl)imidazo[1,2-a]pyridin-3-yl]-N-(cyclobutylmethyl)-2-(difluoromethoxy)-6-methoxy-benzamide]
20 | > 500 nM | 10 to 100 nM | > 500 nM | COc1cc(-c2cnc3cc(C(C)(C)C#N)ccn23)cc(OC(F)F)c1C(=O)N[C@H]1CCCC[C@@H]1N [Cpd 92, N-[(1S,2S)-2-aminocyclohexyl]-4-[7-(1-cyano-1-methyl-ethyl)imidazo[1,2-a]pyridin-3-yl]-2-(difluoromethoxy)-6-methoxy-benzamide]
21 | > 500 nM | 10 to 100 nM | > 500 nM | COc1cc(-c2cnc3cc(C(C)(C)C#N)ccn23)cc(OC(F)F)c1C(=O)N1CC(CO)C1 [Cpd 97, 2-[3-[3-(difluoromethoxy)-4-[3-(hydroxymethyl)azetidine-1-carbonyl]-5-methoxy-phenyl]imidazo[1,2-a]pyridin-7-yl]-2-methyl-propanenitrile]
22 | > 500 nM | 10 to 100 nM | > 500 nM | COc1cc(-c2cnc3cc(C(C)(C)C#N)ccn23)cc(OC(F)F)c1C(=O)N1CC(OC)C1 [Cpd 98, 2-[3-[3-(difluoromethoxy)-5-methoxy-4-(3-methoxyazetidine-1-carbonyl)phenyl]imidazo[1,2-a]pyridin-7-yl]-2-methyl-propanenitrile]
23 | > 500 nM | > 500 nM | > 500 nM | COc1cc(-c2cnc3cc(C(C)(C)C#N)ccn23)cc(OC(F)F)c1C(=O)NC(C1CC1)C(F)(F)F (stereo not drawn) [Cpd 100, 4-[7-(1-cyano-1-methyl-ethyl)imidazo[1,2-a]pyridin-3-yl]-N-(1-cyclopropyl-2,2,2-trifluoro-ethyl)-2-(difluoromethoxy)-6-methoxy-benzamide]
24 | > 500 nM | 100 to 500 nM | > 500 nM | COc1cc(-c2cnc3cc(C(C)(C)C#N)ccn23)cc(OC(F)F)c1C(=O)NC(C)C1CC1 (stereo not drawn) [Cpd 101, 4-[7-(1-cyano-1-methyl-ethyl)imidazo[1,2-a]pyridin-3-yl]-N-(1-cyclopropylethyl)-2-(difluoromethoxy)-6-methoxy-benzamide]
